Source: patent US4959361A, “Triazolo(4,3-A)(1,4)benzodiazepines and thieno (3,2-F)(1,2,4)triazolo(4,3-A)(1,4)diazepine compounds which have useful activity as platelet activating factor (PAF) antagonists” (Hoffmann-La Roche Inc., priority 1988, dated 1990)
Read-outs that look alike come from different tables or passages of the source.

What was measured:
[1] = target: T1, PAF-binding, dog platelets (Canis lupus familiaris, UniProt A0A8I3NSH0); assay: PAF binding assay (radiolabelled H-PAF, washed dog platelets); details: 10 minutes at room temperature, read-out: PAF-binding IC-50
T1 construct: dog platelets; from tissue; host or cells: washed platelets from citrated dog blood
T1 sequence (A0A8I3NSH0 1-343): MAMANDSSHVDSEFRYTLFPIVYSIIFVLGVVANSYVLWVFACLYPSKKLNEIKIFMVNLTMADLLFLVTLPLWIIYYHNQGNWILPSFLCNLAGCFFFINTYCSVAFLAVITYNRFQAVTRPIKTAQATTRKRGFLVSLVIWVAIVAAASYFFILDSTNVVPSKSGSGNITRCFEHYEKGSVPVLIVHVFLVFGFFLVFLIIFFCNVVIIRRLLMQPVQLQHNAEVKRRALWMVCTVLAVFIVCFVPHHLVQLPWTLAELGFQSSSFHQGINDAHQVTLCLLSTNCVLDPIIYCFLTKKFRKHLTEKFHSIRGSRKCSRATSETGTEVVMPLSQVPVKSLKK
Method: The binding assay was done in […] polyethylene microcentrifuge tubes (Beckman) containing 50 μl of an oil mixture of 2 parts Siliconol AR200 (Serva): 1 part Silicone Fluid (Arthur H. Thoma). Buffer, standards, or analogs (150 μl total volume) were added to the tubes. Radiolabelled H-PAF (50 μl) was then added to the tubes. The reaction was started by the addition of 50 μl of dog platelets (2×10^7 platelets). The tubes were capped, inverted several times to mix, and incubated for 10 minutes at room temperature. The platelets were separated from the incubation mixture by centrifuging 1 minute in a Beckman Microfuge B centrifuge. The tip of the microfuge tube was cut off, and the platelets were washed out of the tip with 200 μl of 50% methanol (Burdick and Jackson). Aquasol (NEN, 10 ml) was added and the radioactivity in the samples was determined using an LS 8100 Beckman liquid scintillation counter linked to a Techtran tape recorder Data was processed through an in-house computer system. Alternatively, radioactivity was determined using a Searle Mark III liquid scintillation counter linked to a Iso-Data microprocessor.
(b) preparation of platelets
Blood was collected from anesthesized or unanesthesized dogs into 50 ml plastic centrifuge tubes containing 3.8% sodium citrate as the anticoagulant (1 volume of citrate/9 volumes of blood). The red cells were removed by centrifugation for 15 minutes at 600 rpm (100-125 g) at room temperature. An aliquot of the supernatant platelet rich plasma (PRP) was saved for cell counting and the remainder was acidified to pH 6.5 with 0.15M citric acid. The platelet pellet was obtained after a 10 minute centrifugation at 2000 rpm (1000 g) at room temperature. Washed platelets were prepared by resuspending the platelet pellet once with pBS containing 1 mM EDTA, centrifuging as noted, and then resuspending the platelets in 0.1% BSA pBS. An aliquot of the washed platelets was counted. Platelets used for binding assays were diluted to 2×10^7 platelets/assay tube (4×10^8 platelets/ml). platelet countinq was done using a Royco Cell-Crit 921.

[2] = system: PAF Induced Bronchoconstriction; assay: PAF induced bronchoconstriction assay, intravenous testing; format: in vivo, guinea pig; details: for ED50: Cavia porcellus, iv, 1 min, i.v., 1 minute pretreatment, PAF 1 μg/kg i.v., read-out: Bronchoconstriction ID-50 i.v.; for % inhibition of bronchoconstriction: Table II (*), at 0. mg/kg i.v. (dose digit cut off)
Method: Male animals (Hartlet Strain, 400-500 g were anesthetized with urethane (2 g/kg, i.p.). Each animals' trachea was cannulated and the guinea pigs were respirated using a Harvard small animal rodent respirator (3.0 cc stroke volume, 40 breaths per min.). Tracheal pressure was recorded from a cannula inserted in the trachea and connected to a Statham pressure transducer.
The jugular vein was cannulated for administering compounds. Spontaneous breathing was arrested with succinylcholine (1.2 mg/kg, i.v.) administered 2 minutes prior to intravenous injection of platelet activating factor PAF).
For the intravenous testing, the guinea pig is given a 1-minute pretreatment with propranolol at a dose of 0.1 mg/kg intravenously. The test compound is administered with a 1 minute pretreatment prior to intravenous challenge with PAF. The animal is then challenged with a 1 μg/kg intravenous dose of PAF and the change in tracheal pressure is measured.
The change in tracheal pressure is determined by subtracting the steady state baseline achieved after administration of succinylcholine from the peak broncho. constriction seen after challenge with PAF. The mean is calculated for each test compound and compared to the mean of the control animals to give the percent inhibition of bronchoconstriction. The standard error is calculated as the standard error of the mean.

[3] = system: PAF Induced Bronchoconstriction; assay: PAF induced bronchoconstriction assay, oral testing; format: in vivo, guinea pig; details: Cavia porcellus, 2 hr; for ED50: p.o., read-out: Bronchoconstriction ID-50 p.o. 2 hr; for inhibition in vivo at 3 mg/kg: Table II (*), 3 mg/kg p.o.
[4] = Table I, triazolothienodiazepines
[5] = Table II, triazolobenzodiazepines
[6] = Table II (**), at an oral dose of 0.3 mg/kg
[7] = po, Table I, at a dose of 0.3 mg/kg p.o.

Cc1nnc2n1-c1sc(C#CCN3C(=O)c4cccc5cccc(c45)C3=O)cc1C(c1ccccc1Cl)=NC2
IC50 [1, 4]: 12 nM | ED50 ([2]; Table I): < 0.1 mg/kg | ED50 ([3]; po, Table I): 0.025 mg/kg

Cc1nnc2n1-c1sc(C#CCn3ncc4ccccc43)cc1C(c1ccccc1Cl)=NC2
IC50 [1, 4]: 1 nM | ED50 ([2]; Table I): 0.002 mg/kg | ED50 ([3]; po, Table I): 0.015 mg/kg

Cc1nnc2n1-c1ccc(C#CCn3c(=O)c4c(ncn4C)n(C)c3=O)cc1C(c1ccccc1F)=NC2
ED50 ([3]; po, Table II): > 0.3 mg/kg

Cc1nnc2n1-c1ccc(C#CCN3C(=O)C4CC=CCC4C3=O)cc1C(c1ccccc1F)=NC2 (centres unmarked)
IC50 [1, 5]: 50 nM | inhibition in vivo at 3 mg/kg ([3]; po): 99%

Cc1nnc2n1-c1ccc(C#CCN3C(=O)Cc4ccccc43)cc1C(c1ccccc1F)=NC2
IC50 [1, 5]: < 10 nM | inhibition in vivo at 0.3 mg/kg [3, 6]: 32%

Cc1nnc2n1-c1ccc(C#CCCN3C(=O)c4ccccc4C3=O)cc1C(c1ccccc1F)=NC2
inhibition in vivo at 0.3 mg/kg [3, 6]: 54%

Cc1nnc2n1-c1sc(C#CCn3c4ccccc4c4ccccc43)cc1C(c1ccccc1Cl)=NC2
IC50 [1, 4]: 120 nM | ED50 ([2]; Table I): 0.016 mg/kg | ED50 ([3]; po, Table I): 0.016 mg/kg

Cc1nnc2n1-c1ccc(C#CCN3C(=O)c4cccc5cccc(c45)C3=O)cc1C(c1ccccc1Cl)=NC2
inhibition in vivo at 3 mg/kg ([3]; po): 99%

Cc1nnc2n1-c1ccc(C#CCn3ccc4ccccc43)cc1C(c1ccccc1F)=NC2
ED50 ([3]; po, Table II): > 0.3 mg/kg

Cc1nnc2n1-c1ccc(C#CCN3C(=O)C4CCCN4C3=O)cc1C(c1ccccc1F)=NC2 (centres unmarked)
IC50 [1, 5]: 200 nM | inhibition in vivo at 3 mg/kg ([3]; po): 99%

Cc1nnc2n1-c1ccc(C#CCn3c(C)nc4ccccc4c3=O)cc1C(c1ccccc1F)=NC2
IC50 [1, 5]: 50 nM

Cc1nnc2n1-c1sc(C#CCn3c(=O)c4cc(Cl)ccc4c4ccc(Cl)cc43)cc1C(c1ccccc1Cl)=NC2
ED50 ([2]; Table I): 0.008 mg/kg

O=C1c2ccccc2C(=O)N1CC#Cc1ccc2c(c1)C(c1ccccc1F)=NCc1nnc(C(F)(F)F)n1-2
ED50 ([2]; Table II): 0.44 mg/kg | ED50 ([3]; po, Table II): 0.3 mg/kg

Cc1nnc2n1-c1ccc(C#CCN3C(=O)c4ccccc4S3(=O)=O)cc1C(c1ccccc1F)=NC2
IC50 [1, 5]: 150 nM

Cc1nnc2n1-c1ccc(C#CCN3C(=O)CN(C)C(=O)c4ccccc43)cc1C(c1ccccc1F)=NC2
IC50 [1, 5]: 160 nM

Cc1nnc2n1-c1sc(C#CCN3CCc4ccccc4C3=O)cc1C(c1ccccc1Cl)=NC2
ED50 ([2]; Table I): 0.008 mg/kg | ED50 ([3]; po, Table I): 0.016 mg/kg

Cc1nnc2n1-c1sc(C#CCn3c(=O)c4ccccc4c4ccccc43)cc1C(c1ccccc1Cl)=[N+]([O-])C2
IC50 [1, 4]: 15 nM | ED50 ([2]; Table I): 0.017 mg/kg

Cc1nnc2n1-c1ccc(C#CCN3Cc4ccccc4C3=O)cc1C(c1ccccc1F)=NC2
IC50 [1, 5]: 225 nM | inhibition in vivo at 3 mg/kg ([3]; po): 100%

Cc1nnc2n1-c1sc(C#CCN3C(=O)c4ccccc4S3(=O)=O)cc1C(c1ccccc1Cl)=NC2
IC50 [1, 4]: 4 nM | inhibition in vivo at 0.3 mg/kg [3, 7]: 27%

Cc1nnc2n1-c1ccc(C#CCn3cnc4ccccc43)cc1C(c1ccccc1Cl)=NC2
IC50 [1, 5]: 15 nM

Cc1nnc2n1-c1ccc(C#CCn3ncc4ccccc43)cc1C(c1ccccc1F)=NC2
IC50 [1, 5]: < 10 nM

Cc1nnc2n1-c1ccc(C#CCOc3ccccc3)cc1C(c1ccccc1Cl)=NC2
IC50 [1, 5]: < 10 nM | inhibition in vivo at 0.3 mg/kg [3, 6]: 37%

Cc1nnc2n1-c1ccc(C#CCN3C(=O)CSc4ccccc43)cc1C(c1ccccc1F)=NC2
% inhibition of bronchoconstriction [2]: 99% | inhibition in vivo at 3 mg/kg ([3]; po): 99%

Cc1nnc2n1-c1sc(C#CCn3c(=O)c4ccccc4c4ccccc43)cc1C(c1ccccc1Cl)=NC2O (centres unmarked)
IC50 [1, 4]: 25 nM | ED50 ([2]; Table I): 0.022 mg/kg

Cc1nnc2n1-c1sc(C#CCN3C(=O)Cc4ccccc43)cc1C(c1ccccc1Cl)=NC2
IC50 [1, 4]: 3 nM | ED50 ([3]; po, Table I): 0.05 mg/kg

Cc1nnc2n1-c1sc(C#CCOc3ccccc3)cc1C(c1ccccc1Cl)=NC2
ED50 ([2]; Table I): 0.006 mg/kg | inhibition in vivo at 0.3 mg/kg [3, 7]: 67%

Cc1nnc2n1-c1ccc(C#CCN3C(=O)CCc4ccccc43)cc1C(c1ccccc1F)=N[C@H]2C
IC50 [1, 5]: 6 nM | ED50 ([2]; Table II): 0.008 mg/kg

Cc1nnc2n1-c1sc(C#CCn3c(=O)c4ccccc4c(=O)c4ccccc43)cc1C(c1ccccc1Cl)=NC2
ED50 ([2]; Table I): 0.008 mg/kg | ED50 ([3]; po, Table I): 0.026 mg/kg

Cc1nnc2n1-c1ccc(C#CCN3C(=O)C(=O)c4ccccc43)cc1C(c1ccccc1Cl)=NC2
IC50 [1, 5]: 350 nM | % inhibition of bronchoconstriction [2]: 100%

Cc1nnc2n1-c1ccc(C#CCn3c(=O)oc4ccccc43)cc1C(c1ccccc1Cl)=NC2
IC50 [1, 5]: 20 nM | inhibition in vivo at 3 mg/kg ([3]; po): 91%

Cc1nnc2n1-c1sc(C#CCn3cnc4ccccc43)cc1C(c1ccccc1Cl)=NC2
IC50 [1, 4]: 4.5 nM | ED50 ([3]; po, Table I): 0.12 mg/kg

Cc1nnc2n1-c1ccc(C#CCN3C(=O)Cc4ccccc43)cc1C(c1ccccc1Cl)=NC2
IC50 [1, 5]: < 10 nM

Cc1nnc2n1-c1sc(C#Cc3ccccc3)cc1C(c1ccccc1Cl)=NC2
IC50 [1, 4]: 100 nM | ED50 ([2]; Table I): > 0.1 mg/kg

Cc1nnc2n1-c1ccc(C#CCn3cnc4ccccc4c3=O)cc1C(c1ccccc1F)=NC2
IC50 [1, 5]: 70 nM

Cc1nnc2n1-c1ccc(C#CCN3C(=O)COc4ccccc43)cc1C(c1ccccc1F)=NC2
% inhibition of bronchoconstriction [2]: 100% | inhibition in vivo at 3 mg/kg ([3]; po): 98%

Cc1nnc2n1-c1sc(C#C[Si](C)(C)C)cc1C(c1ccccc1Cl)=NC2
IC50 [1, 4]: 20 nM | ED50 ([2]; Table I): 0.28 mg/kg

Cc1nnc2n1-c1ccc(C#CCOc3cccnc3)cc1C(c1ccccc1Cl)=NC2
IC50 [1, 5]: 130 nM | ED50 ([2]; Table II): 0.005 mg/kg

Cc1c(C)c2c(c(C)c1O)CCC(C)(C#Cc1cc3c(s1)-n1c(C)nnc1CN=C3c1ccccc1Cl)O2 (centres unmarked)
IC50 [1, 4]: 45 nM | ED50 ([2]; Table I): 0.027 mg/kg

Cc1nnc2n1-c1sc(C#CCn3c4ccccc4c(=O)c4ccccc43)cc1C(c1ccccc1Cl)=NC2
ED50 ([2]; Table I): 0.01 mg/kg

Cc1nnc2n1-c1sc(C#CCn3nc4ccccn4c3=O)cc1C(c1ccccc1Cl)=NC2
IC50 [1, 4]: 11 nM | inhibition in vivo at 0.3 mg/kg [3, 7]: 79%

Cc1nnc2n1-c1sc(C#CCN3C(=O)COc4cc(F)ccc43)cc1C(c1ccccc1Cl)=NC2
ED50 ([2]; Table I): 0.005 mg/kg | ED50 ([3]; po, Table I): 0.016 mg/kg

Cc1nnc2n1-c1ccc(C#CCn3nc4ccccn4c3=O)cc1C(c1ccccc1F)=NC2
IC50 [1, 5]: 350 nM | inhibition in vivo at 3 mg/kg ([3]; po): 43%
